This is an account of results in US8546381B2, “Bridged heterocyclic compounds and methods of use” (Medivation Technologies, Inc., priority 2008, dated 2013).

In assay [1] the target is T1, human recombinant histamine H2 receptor (Homo sapiens, UniProt P25021).
T1 construct: expressed in transfected cells; host or cells: CHO-K1 cells
Briefly: Histamine H2 radioligand binding ([125I]Aminopotentidine). As to conditions: compound at 1 μM; inhibition of specific [125I]Aminopotentidine binding; read-out: Histamine Binding (1 μM) H2, Percentage Inhibition. The essentials:
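CHO-K1 membranes expressing the receptor were incubated in 50 mM phosphate buffer, pH 7.4, with 0.1 nM [125I]aminopotentidine for 120 min at 25°C; 3 μM tiotidine defined non-specific binding.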

For assay [2], the target named is T2, rat adrenergic α1B receptor (Rattus norvegicus, UniProt P15823).
T2 construct: obtained from Wistar Rat liver; from tissue; host or cells: Wistar rat liver
T2 sequence (P15823 1-515): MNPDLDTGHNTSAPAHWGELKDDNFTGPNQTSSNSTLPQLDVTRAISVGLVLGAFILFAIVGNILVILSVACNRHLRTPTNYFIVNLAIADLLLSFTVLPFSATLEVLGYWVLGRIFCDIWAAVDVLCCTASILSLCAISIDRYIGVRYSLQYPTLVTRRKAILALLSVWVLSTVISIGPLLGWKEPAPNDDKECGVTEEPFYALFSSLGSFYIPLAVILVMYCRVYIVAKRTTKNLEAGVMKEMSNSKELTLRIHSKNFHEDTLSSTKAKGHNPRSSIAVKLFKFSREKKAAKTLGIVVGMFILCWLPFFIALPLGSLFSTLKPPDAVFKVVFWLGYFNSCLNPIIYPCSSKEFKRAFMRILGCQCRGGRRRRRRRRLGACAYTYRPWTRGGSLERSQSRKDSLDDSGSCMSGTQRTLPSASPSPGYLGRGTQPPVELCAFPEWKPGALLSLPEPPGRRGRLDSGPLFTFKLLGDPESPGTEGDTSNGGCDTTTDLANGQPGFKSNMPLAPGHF
Briefly: Adrenergic α1B radioligand binding ([3H]Prozosin). As to conditions: read-out: Adrenergic α1B, inhibition of ligand binding (1 μM). The protocol: To evaluate in radioligand binding assays the activity of compounds of the invention, rat adrenergic α1B receptor obtained from Wistar Rat liver (Garcia-S'ainz, J. A. et al., Biochem. Biophys. Res. Commun. 186:760, 1992; Michel A. D. et al., Br. J. Pharmacol. 98:883, 1989) in a modified Tris-HCl buffer (50 mM Tris-HCl buffer, pH 7.4, 0.5 mM EDTA) was used. Compounds of the invention were incubated with 0.25 nM [^3H]Prozosin for 60 minutes at 25° C. Non-specific binding was estimated in the presence of 10 μM phentolamine. Receptor proteins were filtered and washed, the filters were then counted to determine [^3H]Prozosin specifically bound. Compounds were screened at 1 μM or lower, using 1% DMSO as vehicle. Compounds of the invention were tested in this biochemical assay and percent inhibition of specific binding was determined.

The target of assay [3] is T3, human recombinant serotonin (5-Hydroxytryptamine) 5-HT7 receptor (Homo sapiens, UniProt P34969).
T3 construct: expressed in transfected cells; host or cells: CHO cells
Briefly: Serotonin 5-HT7 radioligand binding ([3H]LSD). As to conditions: read-out: Serotonin 5-HT7, inhibition of ligand binding (1 μM). The protocol:
To evaluate in radioligand binding assays the activity of compounds of the invention, human recombinant serotonin (5-Hydroxytryptamine) 5-HT7 receptor expressed in Chinese hamster ovary (CHO) cells (Roth, B. L. et al., J. Pharmacol. Exp. Ther. 268:1403, 1994; Shen, Y. et al., J. Biol. Chem. 268:18200, 1993) in a modified Tris-HCl buffer (50 mM Tris-HCl, pH 7.4, 10 mM MgCl2, 0.5 mM EDTA) was used. Compounds of invention were incubated with 5.5 nM [^3H] Lysergic acid diethylamide (LSD) for 2 hours at 25° C. Non-specific binding was estimated in the presence of 10 μM Serotonin (5-HT). Receptor proteins were filtered and washed, the filters were then counted to determine [^3H]LSD specifically bound. Compounds were screened at 1 μM or lower, using 1% DMSO as vehicle. Biochemical assay results are presented as the percent inhibition of specific binding in Table 4.

The test system of assay [4] is rat central imidazoline I2 receptor. The assay is described as follows: Central imidazoline I2 radioligand binding ([3H]Idazoxan). To be noted: compound at 1 μM; inhibition of specific [3H]Idazoxan binding. The protocol:
To evaluate in radioligand binding assays the activity of compounds of the invention, rat central imidazoline I2 receptor obtained from Wistar Rat cerebral cortex (Brown, C. M. et al., Br. J. Pharmacol. 99:803, 1990) in a modified Tris-HCl buffer (50 mM Tris-HCl buffer, pH 7.4, 0.5 mM EDTA) was used. Compounds of the invention were incubated with 2 nM [^3H]Idazoxan for 30 minutes at 25° C. Non-specific binding was estimated in the presence of 1 μM Idazoxan. Receptor proteins were filtered and washed, the filters were then counted to determine [^3H]Idazoxan specifically bound. Compounds were screened at 1 μM or lower, using 1% DMSO as vehicle. Compounds of the invention were tested in this biochemical assay and percent inhibition of specific binding was determined.

In general, inhibition refers to how much of the control response was suppressed.

T1 sequence (P25021 whole entry): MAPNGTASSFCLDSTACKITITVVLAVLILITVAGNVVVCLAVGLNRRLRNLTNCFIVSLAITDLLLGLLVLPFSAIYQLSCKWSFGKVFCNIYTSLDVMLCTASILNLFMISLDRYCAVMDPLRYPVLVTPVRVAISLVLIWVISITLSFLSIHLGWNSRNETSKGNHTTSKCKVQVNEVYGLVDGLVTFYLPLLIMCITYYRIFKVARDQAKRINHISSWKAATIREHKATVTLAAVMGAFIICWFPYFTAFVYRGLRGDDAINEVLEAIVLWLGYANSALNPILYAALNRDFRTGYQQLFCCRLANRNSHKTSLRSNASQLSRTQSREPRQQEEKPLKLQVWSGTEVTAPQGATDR
T3 sequence (P34969 whole entry): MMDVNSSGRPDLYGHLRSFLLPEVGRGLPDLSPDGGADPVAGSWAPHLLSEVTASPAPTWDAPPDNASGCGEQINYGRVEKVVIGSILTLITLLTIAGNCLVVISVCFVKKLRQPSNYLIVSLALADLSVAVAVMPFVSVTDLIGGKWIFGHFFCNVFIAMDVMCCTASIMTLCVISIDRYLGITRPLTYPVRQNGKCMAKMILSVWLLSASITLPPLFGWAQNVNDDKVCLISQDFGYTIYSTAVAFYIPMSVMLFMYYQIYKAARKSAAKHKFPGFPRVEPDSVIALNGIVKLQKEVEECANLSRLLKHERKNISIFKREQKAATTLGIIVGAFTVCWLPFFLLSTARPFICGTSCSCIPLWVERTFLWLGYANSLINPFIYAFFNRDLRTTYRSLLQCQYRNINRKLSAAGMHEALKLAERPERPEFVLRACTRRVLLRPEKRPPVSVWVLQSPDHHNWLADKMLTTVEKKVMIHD

For `Cc1ccc2c(c1)c1c(n2CCc2ccccc2)CC2CCCC1N2C` (stereo not drawn) [Compound 56], the results for the inhibition at 1 µM in assay [1], in assay [2] and in assay [3] were 16%, 80% and 92%, respectively. For the same compound, the “Imidazoline I2 Central (1 μM), Percentage Inhibition” value in assay [4] is 27%.
For `CN1C2CCC1c1c(n(CCc3ccc(Cl)cc3)c3ccc(Cl)cc13)C2` (stereo not drawn) [Compound 58], the inhibition at 1 µM in assay [1] came out at 52%; in assay [2] it was 83%; in assay [3], 93%. Further, the “Imidazoline I2 Central (1 μM), Percentage Inhibition” value in assay [4] turned out to be 8%.
As for `CN1C2CCC1c1c(n(CCc3ccc(F)cc3)c3ccc(Cl)cc13)C2` (stereo not drawn) [Compound 57], the values for the inhibition at 1 µM in assay [1], in assay [2] and in assay [3] were 37%, 87% and 94%, respectively. In assay [4], the “Imidazoline I2 Central (1 μM), Percentage Inhibition” value is 8%.
